# Measured values: ChEMBL document CHEMBL1142306, “Biflavonoids isolated from Selaginella tamariscina regulate the expression of matrix metalloproteinase in human skin fibroblasts” (Bioorg Med Chem, 2008)
# Active and inactive are the calls of the source. The calls are words filed in the database; no cut-off is given here.
# Key:
# [1] = tested on: Fibroblast; assay: Inhibition of UVB irradiation-induced MMP1 production in human dermal fibroblasts at 1.25 uM after 48 hrs; assay type: functional, cell-based
# [2] = tested on: Fibroblast; assay: Decrease in protein content in UVB irradiated human dermal fibroblasts at 5 uM relative to control; assay type: functional; design: scale not given: the % may be the effect or the level left
# [3] = tested on: Fibroblast; assay: Inhibition of UVB irradiation-induced MMP1 production in human dermal fibroblasts at 5 uM after 48 hrs; assay type: functional, cell-based
# [4] = tested on: Fibroblast; assay: Growth inhibition of UVB irradiated human dermal fibroblasts at 5 uM; assay type: functional, cell-based
# [5] = tested on: Fibroblast; assay: Decrease in cell viability of UVB irradiated human dermal fibroblasts at 5 uM; assay type: functional
# [6] = target: 72 kDa type IV collagenase (Homo sapiens) (UniProt P08253); assay: Inhibition of MMP2 in UVB irradiated human dermal fibroblasts at <5 uM by zymography
# Chain of 72 kDa type IV collagenase (Homo sapiens) (P08253 110-660 limits assumed): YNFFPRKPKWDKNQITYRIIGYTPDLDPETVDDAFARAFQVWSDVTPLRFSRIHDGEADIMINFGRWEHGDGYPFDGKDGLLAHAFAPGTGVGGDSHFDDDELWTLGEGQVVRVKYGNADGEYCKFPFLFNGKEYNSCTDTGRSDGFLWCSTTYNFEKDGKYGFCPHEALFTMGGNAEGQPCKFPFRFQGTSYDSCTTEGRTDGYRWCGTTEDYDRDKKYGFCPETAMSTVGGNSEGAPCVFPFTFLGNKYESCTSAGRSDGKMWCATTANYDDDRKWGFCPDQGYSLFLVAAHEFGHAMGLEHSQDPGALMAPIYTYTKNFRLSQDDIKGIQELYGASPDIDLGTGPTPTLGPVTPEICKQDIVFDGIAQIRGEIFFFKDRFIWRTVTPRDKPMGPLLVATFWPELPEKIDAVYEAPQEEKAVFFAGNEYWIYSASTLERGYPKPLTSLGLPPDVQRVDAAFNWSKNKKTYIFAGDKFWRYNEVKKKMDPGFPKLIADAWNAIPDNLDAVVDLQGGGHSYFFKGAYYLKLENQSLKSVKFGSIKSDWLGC
# [7] = tested on: Fibroblast; assay: Inhibition of UVB irradiation-induced MMP1 production in human dermal fibroblasts at 2.5 uM after 48 hrs; assay type: functional, cell-based
# [8] = tested on: Fibroblast; assay: Inhibition of UVB irradiation-induced MMP1 production in human dermal fibroblasts after 48 hrs; assay type: functional, cell-based; conditions: for IC50: light or radiation study
# [9] = tested on: Fibroblast; assay: Decrease in protein content in UVB irradiated human dermal fibroblasts at 20 uM relative to control; assay type: functional; design: scale not given: the % may be the effect or the level left
# [10] = tested on: Fibroblast; assay: Inhibition of UVB irradiation-induced MMP1 production in human dermal fibroblasts at 20 uM after 48 hrs; assay type: functional, cell-based
# [11] = tested on: Fibroblast; assay: Decrease in cell viability of UVB irradiated human dermal fibroblasts at 20 uM; assay type: functional
# [12] = tested on: Fibroblast; assay: Growth inhibition of UVB irradiated human dermal fibroblasts at 20 uM; assay type: functional, cell-based
# [13] = tested on: Fibroblast; assay: Inhibition of UVB irradiation-induced MMP1 production in human dermal fibroblasts at 10 uM after 48 hrs; assay type: functional, cell-based
SMILES,Activity [1],Activity [2] [%],Activity [3],Activity [4],Activity [5] [%],Activity [6],Activity [7],Activity [8],IC50 [8] [µM],Activity [9] [%],Activity [10],Activity [11] [%],Activity [12],Activity [13]
O=c1cc(-c2ccc(O)cc2-c2c(O)cc(O)c3c(=O)cc(-c4ccc(O)cc4)oc23)oc2cc(O)cc(O)c12,inactive,50,Active,Active,50,inactive,inactive,,,,,,,
O=c1cc(-c2ccc(O)c(-c3c(O)cc4oc(-c5ccc(O)cc5)cc(=O)c4c3O)c2)oc2cc(O)cc(O)c12,inactive,,inactive,,,inactive,inactive,,,,,,,
O=c1cc(-c2ccc(O)c(-c3c(O)cc(O)c4c(=O)cc(-c5ccc(O)cc5)oc34)c2)oc2cc(O)cc(O)c12 [AMENTOFLAVONE],,,Active,,,inactive,,Dose-dependent effect,1.8,,,,,
O=c1cc(-c2ccc(O)c(-c3c(O)c(O)c(O)c4c(=O)cc(-c5ccc(O)cc5)oc34)c2)oc2cc(O)cc(O)c12 [SUMAFLAVONE],,50,Active,Active,50,inactive,,Dose-dependent effect,0.78,,,,,
O=c1cc(-c2ccc(O)c(-c3c(-c4ccc(O)cc4)oc4cc(O)cc(O)c4c3=O)c2)oc2cc(O)cc(O)c12 [TAIWANIAFLAVONE],,,inactive,,,inactive,,,,50,Active,50,Active,inactive
CC1=C(/C=C/C(C)=C/C=C/C(C)=C/C(=O)O)C(C)(C)CCC1 [TRETINOIN],,,,,,,,,10,,,,,
